# Source: publication PMC11949107, “Polyunsaturated fatty acids and their endocannabinoid-related metabolites activity at human TRPV1 and TRPA1 ion channels expressed in HEK-293 cells” (PeerJ, 2025)
# Several values for one entry are separate records, joined by “and”; a condition that tells them apart may be missing. Equal values may be shown once. Read-outs that look alike come from different tables or passages of the source.
# Assays:
# human TRPV1 [1] = molecular target: T1, human TRPV1 (Homo sapiens, UniProt Q8NER1); test: Calcium 5 dye [Ca]i assay in HEK-293 Flp-In T-REx cells expressing TRPV1 (agonist response); type: cell-based; details: for Elevation of [Ca]i in HEK-293 TRPV1 cells compared with HEK-293 EV cells / Change of Ca5 fluorescence, Mean ± SEM, TRPV1 (10 µM): 10 µM; for Change of Ca5 fluorescence, Mean ± SEM, TRPV1 (10 µM): HEK-293 TRPV1 cells, percentage of predrug baseline; for Change in Ca5 fluorescence, individual experiments (CRC raw data): TRPV1 cells
# T1 construct: Life Technologies (cells); host or cells: Flp-In T-REx HEK-293
# T1 sequence (Q8NER1 whole entry): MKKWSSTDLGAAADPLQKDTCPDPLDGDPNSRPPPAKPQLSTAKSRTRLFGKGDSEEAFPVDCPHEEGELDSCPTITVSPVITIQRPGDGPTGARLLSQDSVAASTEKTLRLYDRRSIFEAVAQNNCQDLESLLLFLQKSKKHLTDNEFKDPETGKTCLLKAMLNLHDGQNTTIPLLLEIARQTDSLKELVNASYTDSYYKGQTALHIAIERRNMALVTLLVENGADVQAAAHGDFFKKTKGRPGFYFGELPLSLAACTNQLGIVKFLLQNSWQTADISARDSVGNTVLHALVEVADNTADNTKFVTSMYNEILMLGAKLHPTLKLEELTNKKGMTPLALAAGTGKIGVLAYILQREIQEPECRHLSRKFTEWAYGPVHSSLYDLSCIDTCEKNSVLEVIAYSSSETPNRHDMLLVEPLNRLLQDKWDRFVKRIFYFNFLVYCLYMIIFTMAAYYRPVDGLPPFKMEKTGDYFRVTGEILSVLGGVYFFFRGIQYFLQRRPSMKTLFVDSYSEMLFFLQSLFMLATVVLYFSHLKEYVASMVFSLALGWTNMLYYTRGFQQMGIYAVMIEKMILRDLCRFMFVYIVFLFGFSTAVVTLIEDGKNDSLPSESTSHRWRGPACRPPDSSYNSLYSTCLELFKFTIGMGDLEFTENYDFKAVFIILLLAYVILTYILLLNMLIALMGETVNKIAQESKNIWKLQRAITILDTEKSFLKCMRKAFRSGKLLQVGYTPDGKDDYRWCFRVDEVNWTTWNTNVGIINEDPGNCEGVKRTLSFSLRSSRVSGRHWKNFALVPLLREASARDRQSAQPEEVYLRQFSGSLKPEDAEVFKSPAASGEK
# How it was run: (§1)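 Tetracycline-induced (1 µg ml^−1, 4 h) HEK-293 T-REx cells loaded with Calcium 5 dye plus 1.25 mM probenecid for 1 h; agonist added after 1 min baseline (0.1% DMSO final), fluorescence (485/525 nm) read every 2 s for 5 min at 37 °C. Response as % change from baseline, solvent-subtracted; EC50/Emax from three-parameter logistic fit, given as pEC50.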
# human TRPA1 = molecular target: T2, human TRPA1 (Homo sapiens, UniProt O75762); test: Calcium 5 dye [Ca]i assay in HEK-293 Flp-In T-REx cells expressing TRPA1 (agonist response); type: cell-based; details: for Elevation of [Ca]i in HEK-293 TRPA1 cells compared with HEK-293 EV cells: 10 µM (cinnamaldehyde 300 µM); for Change of Ca5 fluorescence, Mean ± SEM, TRPA1 (10 µM): HEK-293 TRPA1 cells, percentage of predrug baseline; for TRPA1 activation at the highest concentration tested: 30 µM; for Emax at 30 µM: HEK293, read-out: Emax ± SEM % TRPA1 (30 µM); for [Ca]i response (change in fluorescence), individual replicates: sheet Figure 4
# T2 construct: Life Technologies (cells); host or cells: Flp-In T-REx HEK-293
# T2 sequence (O75762 whole entry): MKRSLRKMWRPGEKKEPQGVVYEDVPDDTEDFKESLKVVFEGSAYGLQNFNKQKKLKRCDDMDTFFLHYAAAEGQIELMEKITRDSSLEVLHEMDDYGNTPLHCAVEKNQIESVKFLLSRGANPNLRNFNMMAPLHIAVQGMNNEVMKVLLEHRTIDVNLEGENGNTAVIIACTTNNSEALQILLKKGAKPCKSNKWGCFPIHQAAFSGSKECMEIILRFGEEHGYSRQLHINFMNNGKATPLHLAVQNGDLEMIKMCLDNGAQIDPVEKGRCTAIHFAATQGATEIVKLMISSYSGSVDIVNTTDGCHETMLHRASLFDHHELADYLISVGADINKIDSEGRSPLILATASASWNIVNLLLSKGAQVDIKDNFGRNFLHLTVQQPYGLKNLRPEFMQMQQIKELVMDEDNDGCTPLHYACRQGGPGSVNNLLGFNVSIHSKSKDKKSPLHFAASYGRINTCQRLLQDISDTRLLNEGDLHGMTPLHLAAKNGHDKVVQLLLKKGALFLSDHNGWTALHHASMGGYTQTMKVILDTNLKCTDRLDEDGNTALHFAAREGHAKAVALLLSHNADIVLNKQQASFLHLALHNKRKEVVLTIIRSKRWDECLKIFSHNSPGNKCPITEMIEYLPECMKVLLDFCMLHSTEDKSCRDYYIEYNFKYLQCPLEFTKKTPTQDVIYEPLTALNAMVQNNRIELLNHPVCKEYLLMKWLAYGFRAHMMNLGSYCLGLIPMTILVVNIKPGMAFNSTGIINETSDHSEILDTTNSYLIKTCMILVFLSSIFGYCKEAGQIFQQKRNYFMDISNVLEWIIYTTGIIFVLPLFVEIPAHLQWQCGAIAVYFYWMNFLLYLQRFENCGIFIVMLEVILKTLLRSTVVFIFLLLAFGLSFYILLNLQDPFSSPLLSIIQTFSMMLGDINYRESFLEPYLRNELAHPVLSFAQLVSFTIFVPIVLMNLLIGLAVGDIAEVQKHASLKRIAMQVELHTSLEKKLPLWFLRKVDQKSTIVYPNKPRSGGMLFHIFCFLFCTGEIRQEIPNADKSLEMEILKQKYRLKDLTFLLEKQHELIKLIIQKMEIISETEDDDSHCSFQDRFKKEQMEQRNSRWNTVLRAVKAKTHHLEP
# How it was run: as §1
# HEK-293 EV cells = test: Calcium 5 dye [Ca]i assay in HEK-293 empty vector (EV) cells; type: cell-based, human; details: 10 µM; HEK-293 EV cells; percentage of predrug baseline
# How it was run: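 Tetracycline at 1 µg ml^−1 was added 4 h before testing; cells were loaded with Calcium 5 dye for 1 h and read at 37 °C, with drug added after 1 min baseline (final 0.1% DMSO). The response was the % change from the 60 s baseline after solvent subtraction, and EC50/Emax came from a three-parameter logistic fit, reported as pEC50.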
# human TRPV1 [2] = molecular target: T1, human TRPV1; test: Pre-incubation with PUFAs or capsazepine, then capsaicin (10 nM) response in HEK-293 TRPV1 cells; type: cell-based; details: for Effect of pre-treatment on the capsaicin response: 10 µM, 5 min exposure, then capsaicin 10 nM; for Post-capsaicin: response to subsequent capsaicin addition, individual experiments: capsaicin 10 nM after 5 min drug 10 µM; for Post-capsaicin: response to subsequent capsaicin addition, individual experiments / Pre-capsaicin: response to first drug, individual experiments: TRPV1 cells; for Pre-capsaicin: response to first drug, individual experiments: drug 10 µM for 5 min
# Description: Intracellular calcium [Ca]i levels were assessed using the calcium 5 kit from Molecular Devices (# R8186, Sunnyvale, CA, USA) on a FlexStation 3 Microplate Reader (Molecular Devices, Sunnyvale, CA, USA). […] Probenecid (cat # 50027; Biotium) which helps to prevent expulsion of calcium indicator from the cells was added to a final concentration of 1.25 mM. 90 µL of the dye were loaded into each well of the plate and incubated for 1 h before reading in the FlexStation 3 at 37 °C. Fluorescence was recorded every 2 s (λ excitation = 485 nm, λ emission = 525 nm) for 5 min. After 1 min of baseline recording, 20 µL of the drug, dissolved in HBSS with 1% dimethyl sulfoxide (DMSO) (cat # D2650; Sigma-Aldrich, Melbourne, Australia) was added (final DMSO concentration was 0.1% in well). […]
# human TRPV1 [3] = molecular target: T1, human TRPV1; test: PMA (phorbol ester) potentiation of TRPV1 responses in HEK-293 TRPV1 cells; type: cell-based; design: key to Drugs alone, individual experiments: change in [Ca]i as % of pre-drug baseline
# Description: Intracellular calcium [Ca]i levels were assessed using the calcium 5 kit from Molecular Devices (# R8186, Sunnyvale, CA, USA) on a FlexStation 3 Microplate Reader (Molecular Devices, Sunnyvale, CA, USA). […] Probenecid (cat # 50027; Biotium) which helps to prevent expulsion of calcium indicator from the cells was added to a final concentration of 1.25 mM. 90 µL of the dye were loaded into each well of the plate and incubated for 1 h before reading in the FlexStation 3 at 37 °C. Fluorescence was recorded every 2 s (λ excitation = 485 nm, λ emission = 525 nm) for 5 min. After 1 min of baseline recording, 20 µL of the drug, dissolved in HBSS with 1% dimethyl sulfoxide (DMSO) (cat # D2650; Sigma-Aldrich, Melbourne, Australia) was added (final DMSO concentration was 0.1% in well).
# We initially determined the effect of PMA, another phorbol ester that is a protein kinase C activator ([Jiang & Fleet, 2012]) on HEK-293 TRPV1 expressing cells.
# (A) Response of HEK-293 TRPV1 expressing cells for PMA at various concentration. […] Drugs were added for the duration of the bar; (D) The effects of PUFAs after potentiation of TRPV1 by PMA. […] Changes in [Ca]i are expressed as percentage of the pre-drug baseline, with the response to PMA alone at 5 min subtracted. The black circles represent the response of PUFAs without PMA pretreatment while the pink circles represent the response of PUFAs after PMA potentiation.
structure (smiles),measurement,setting,value
"CC/C=C\C/C=C\C/C=C\C/C=C\C/C=C\C/C=C\CCC(=O)O [DHA, docosahexaenoic acid]",Elevation of [Ca]i in HEK-293 TRPV1 cells compared with HEK-293 EV cells,human TRPV1 [1],did not produce a notable change
same,"Change of Ca5 fluorescence, Mean ± SEM, TRPV1 (10 µM)",human TRPV1 [1],11 ± 2%
same,Emax at 30 µM,"human TRPV1 [1]; HEK293, read-out: Emax ± SEM % TRPV1 (30 µM)",29 ± 0.8%
same,"Change in Ca5 fluorescence, individual experiments (CRC raw data)",human TRPV1 [1]; log concentration -4.52288 (M),30.4293 and 29.6434 and 28.2029 and 25.9718 and 28.1927 and 31.4702
same,"Change in Ca5 fluorescence, individual experiments (CRC raw data)",human TRPV1 [1]; log concentration -5 (M),15.398 and 14.8517 and 2.207 and 13.9869 and 10.4035 and 11.2548
same,"Change in Ca5 fluorescence, individual experiments (CRC raw data)",human TRPV1 [1]; log concentration -5.52288 (M),5.597 and 6.862 and 1.798 and 7.576
same,"Change in Ca5 fluorescence, individual experiments (CRC raw data)",human TRPV1 [1]; log concentration -6 (M),1.539 and 8.081 and 1.374 and 8.45 and 6.148 and 5.676
same,"Change in Ca5 fluorescence, individual experiments (CRC raw data)",human TRPV1 [1]; log concentration -6.52288 (M),0.111 and 3.665 and 0.7828 and 7.557
same,"Change in Ca5 fluorescence, individual experiments (CRC raw data)",human TRPV1 [1]; log concentration -7 (M),8.793 and 7.902 and 1.12 and 9.145
same,Elevation of [Ca]i in HEK-293 TRPA1 cells compared with HEK-293 EV cells,human TRPA1,did not produce a change
same,"Change of Ca5 fluorescence, Mean ± SEM, TRPA1 (10 µM)",human TRPA1,129 ± 81%
same,TRPA1 activation at the highest concentration tested,human TRPA1,activated TRPA1
same,Emax at 30 µM,human TRPA1; highest tested concentration (30 µM) or derived from concentration-response curves (cinnamaldehyde),408 ± 54%
same,"[Ca]i response (change in fluorescence), individual replicates",human TRPA1; concentration -4.52288 (log),600.618 and 528.86 and 310.75 and 311.859 and 419.884 and 278.355
same,"[Ca]i response (change in fluorescence), individual replicates",human TRPA1; concentration -5 (log),508.031 and 185.633 and 12.6409 and 8.196 and 18.5259 and 39.1466
same,"[Ca]i response (change in fluorescence), individual replicates",human TRPA1; concentration -5.52288 (log),5.528 and 1.551 and 4.973 and 2.123
same,"[Ca]i response (change in fluorescence), individual replicates",human TRPA1; concentration -6 (log),3.48 and 2.006 and 3.985 and 2.738 and 3.1287 and 4.255
same,"[Ca]i response (change in fluorescence), individual replicates",human TRPA1; concentration -6.52288 (log),7.112 and 0.3749 and 2.033 and 5.1389
same,"[Ca]i response (change in fluorescence), individual replicates",human TRPA1; concentration -7 (log),8.809 and 1.203 and 5.563 and 5.621
same,"Change of Ca5 fluorescence, Mean ± SEM, EV (10 µM)",HEK-293 EV cells,11 ± 2%
same,Effect of pre-treatment on the capsaicin response,human TRPV1 [2],did not affect
same,"Post-capsaicin: response to subsequent capsaicin addition, individual experiments",human TRPV1 [2],262.478 and 230.552 and 119.965 and 325.766 and 236.554 and 370.087
same,"Pre-capsaicin: response to first drug, individual experiments",human TRPV1 [2],15.3316 and 14.4172 and 9.221 and 4.601 and 11.1415 and 4.871
same,TRPV1 response after exposure to PMA,"human TRPV1 [3]; PMA 100 nM, 5 min pretreatment",only observed when a phorbol ester was present
same,"Drugs post-PMA, individual experiments","human TRPV1 [3]; PUFA 10 µM after PMA 100 nM for 5 min, response to PMA alone subtracted",50.0906 and 48.3811 and 19.3352 and 66.6517 and 32.7216 and 44.0204 and 2.991
same,"Drugs alone, individual experiments","human TRPV1 [3]; PUFA 10 µM without PMA pretreatment, TRPV1 cells",3.985 and 5.867 and 0 and 3.833 and 0.4866 and -0.286 and 0.9124 and 2.207
"CCCCC/C=C\C/C=C\C/C=C\CCCCC(=O)O [γ-LA, γ-linolenic acid]",Elevation of [Ca]i in HEK-293 TRPV1 cells compared with HEK-293 EV cells,human TRPV1 [1],did not produce a notable change
same,"Change of Ca5 fluorescence, Mean ± SEM, TRPV1 (10 µM)",human TRPV1 [1],10 ± 1%
same,"Change in Ca5 fluorescence, individual experiments (CRC raw data)","human TRPV1 [1]; log concentration -4.52288 (M), listed as GLA",27.0827 and 92.1911 and 21.8805 and 27.2504 and 40.8812 and 31.4387
same,"Change in Ca5 fluorescence, individual experiments (CRC raw data)","human TRPV1 [1]; log concentration -5 (M), listed as GLA",15.417 and 9.771 and 8.536 and 10.7081 and 5.47 and 8.301
same,"Change in Ca5 fluorescence, individual experiments (CRC raw data)","human TRPV1 [1]; log concentration -5.52288 (M), listed as GLA",2.0403 and 1.257 and 4.6526 and 4.706 and 2.248 and 2.361
same,"Change in Ca5 fluorescence, individual experiments (CRC raw data)","human TRPV1 [1]; log concentration -6 (M), listed as GLA",3.899 and 2.392 and 3.26 and 4.994 and 2.614 and 2.892
same,"Change in Ca5 fluorescence, individual experiments (CRC raw data)","human TRPV1 [1]; log concentration -6.52288 (M), listed as GLA",-0.6308 and 4.773 and 3.415 and 10.3597 and 1.966 and 2.796
same,"Change in Ca5 fluorescence, individual experiments (CRC raw data)","human TRPV1 [1]; log concentration -7 (M), listed as GLA",0.359 and 3.081 and 7.321 and 1.04 and 2.553
same,Elevation of [Ca]i in HEK-293 TRPA1 cells compared with HEK-293 EV cells,human TRPA1,did not produce a change
same,"Change of Ca5 fluorescence, Mean ± SEM, TRPA1 (10 µM)",human TRPA1,112 ± 61%
same,TRPA1 activation at the highest concentration tested,human TRPA1,activated TRPA1
same,Emax at 30 µM,human TRPA1,255 ± 73%
same,"[Ca]i response (change in fluorescence), individual replicates","human TRPA1; concentration -4.52288 (log), listed as GLA",481.429 and 335.153 and 71.3202 and 67.3187 and 162.48 and 414.065
same,"[Ca]i response (change in fluorescence), individual replicates","human TRPA1; concentration -5 (log), listed as GLA",268.343 and 23.3711 and 10.7965 and 8.59 and 23.2369 and 338.225
same,"[Ca]i response (change in fluorescence), individual replicates","human TRPA1; concentration -5.52288 (log), listed as GLA",2.578 and 5.507 and 0.9073 and 7.069 and 268.915
same,"[Ca]i response (change in fluorescence), individual replicates","human TRPA1; concentration -6 (log), listed as GLA",0.8222 and 0.07304 and 2.068 and 3.637 and 4.16 and 7.0167
same,"[Ca]i response (change in fluorescence), individual replicates","human TRPA1; concentration -6.52288 (log), listed as GLA",0.1101 and 1.014 and 7.308 and 0.3513 and 4.285 and 9.421
same,"[Ca]i response (change in fluorescence), individual replicates","human TRPA1; concentration -7 (log), listed as GLA",0.1516 and -0.4942 and 5.21 and 2.462 and 4.3545 and 5.724
same,"Change of Ca5 fluorescence, Mean ± SEM, EV (10 µM)",HEK-293 EV cells,9 ± 2%
same,Effect of pre-treatment on the capsaicin response,human TRPV1 [2],did not affect
same,"Post-capsaicin: response to subsequent capsaicin addition, individual experiments",human TRPV1 [2]; listed as GLA,270.139 and 251.245 and 119.532 and 316.43 and 265.849 and 338.308
same,"Pre-capsaicin: response to first drug, individual experiments",human TRPV1 [2]; listed as GLA,11.5745 and 14.3439 and 14.381 and 3.4398 and 10.3554 and 15.8417
